Laboratory results taken from patent publication US8916551B2, “Heterocyclic compound and use thereof” (Takeda Pharmaceutical Company Limited, priority 2010, dated 2014).

What was measured:
[1] = target: T1, AMPA receptor (human GluR1 flip/stargazin expressed in CHO-K1 cells) (Homo sapiens, UniProt P42261); experiment: AMPA receptor function enhancing activity using calcium influx as index; assay type: cell-based; details: 100% = 3 mM glutamic acid + 300 μM cyclothiazide, 0% = 3 mM glutamic acid only
T1 construct: expressed in transfected cells; host or cells: CHO-K1
T1 sequence (P42261 19-906 isoform P42261-2 limits assumed): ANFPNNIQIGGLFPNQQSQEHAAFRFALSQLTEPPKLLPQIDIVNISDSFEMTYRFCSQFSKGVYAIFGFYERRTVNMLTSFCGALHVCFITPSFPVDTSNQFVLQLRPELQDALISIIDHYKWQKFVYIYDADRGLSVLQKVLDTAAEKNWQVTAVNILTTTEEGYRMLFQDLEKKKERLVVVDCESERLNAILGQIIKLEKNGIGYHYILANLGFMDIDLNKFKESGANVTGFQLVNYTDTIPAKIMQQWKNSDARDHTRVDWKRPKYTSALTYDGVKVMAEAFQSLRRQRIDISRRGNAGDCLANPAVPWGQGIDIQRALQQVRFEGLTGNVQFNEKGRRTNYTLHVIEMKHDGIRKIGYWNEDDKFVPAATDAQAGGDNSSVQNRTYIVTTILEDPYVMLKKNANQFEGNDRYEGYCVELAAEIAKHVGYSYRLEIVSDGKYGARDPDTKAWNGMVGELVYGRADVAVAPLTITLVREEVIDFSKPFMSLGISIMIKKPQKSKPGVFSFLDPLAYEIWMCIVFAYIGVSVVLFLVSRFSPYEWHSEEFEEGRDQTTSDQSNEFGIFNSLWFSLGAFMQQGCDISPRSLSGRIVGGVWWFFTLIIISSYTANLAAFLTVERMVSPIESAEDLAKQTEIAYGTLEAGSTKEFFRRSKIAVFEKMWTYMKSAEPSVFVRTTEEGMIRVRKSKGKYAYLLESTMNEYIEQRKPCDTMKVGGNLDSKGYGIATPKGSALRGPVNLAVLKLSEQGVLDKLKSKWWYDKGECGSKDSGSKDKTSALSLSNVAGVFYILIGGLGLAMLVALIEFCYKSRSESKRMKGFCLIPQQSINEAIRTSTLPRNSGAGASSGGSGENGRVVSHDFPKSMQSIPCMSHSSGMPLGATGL
T1 sequence (Q9Y698 whole entry partner): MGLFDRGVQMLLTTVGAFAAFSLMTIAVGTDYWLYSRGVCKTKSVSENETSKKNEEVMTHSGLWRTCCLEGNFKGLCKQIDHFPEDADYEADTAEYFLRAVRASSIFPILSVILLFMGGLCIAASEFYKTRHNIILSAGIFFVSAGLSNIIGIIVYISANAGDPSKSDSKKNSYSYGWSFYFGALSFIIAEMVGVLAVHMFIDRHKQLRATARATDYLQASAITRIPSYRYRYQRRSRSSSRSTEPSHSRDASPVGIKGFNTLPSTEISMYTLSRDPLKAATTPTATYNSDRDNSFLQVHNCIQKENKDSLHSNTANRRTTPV
How it was run: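 CHO-K1 clone stably co-expressing human GluR1 flip and stargazin, loaded with Calcium 4 dye plus probenecid. Compound at 30 μM was added with glutamate (3 mM final) and fluorescence change followed over 3 min. Activity is expressed as % of the 3 mM glutamate plus 300 μM cyclothiazide response, with glutamate alone as 0%.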

[2] = test compound 30 μM with glutamic acid final 3 mM, change in fluorescence in 3 min
[3] = test compound 30 μM with 3 mM glutamic acid, change in fluorescence level in 3 min

| activity (%) [1, 2] | melting point | activity (%) [1, 3] | Compound |
| --- | --- | --- | --- |
| 80% | 238 to 239 °C |  | O=S1(=O)CCN2CCCC(c3ccc(-c4ccccc4)cc3)C2=N1 (centres unmarked) [Example 28, 9-biphenyl-4-yl-3,4,6,7,8,9-hexahydropyrido[2,1-c][1,2,4]thiadiazine 2,2-dioxide] |
| 86% | 248 to 249 °C |  | O=S1(=O)CCN2C=C(Cl)C=C(c3ccc(Oc4ccccc4)cc3)C2=N1 [Example 81, 7-chloro-9-(4-phenoxyphenyl)-3,4-dihydropyrido[2,1-c][1,2,4]thiadiazine 2,2-dioxide] |
|  | 195 to 197 °C | 67% | O=S1(=O)CCN2CCCC(c3ccc(Oc4ccc(Cl)c(Cl)c4)cc3)C2=N1 (centres unmarked) [Example 151, 9-[4-(3,4-dichlorophenoxy)phenyl]-3,4,6,7,8,9-hexahydropyrido[2,1-c][1,2,4]thiadiazine 2,2-dioxide] |
|  | 266 to 267 °C | 79% | O=S1(=O)CCN2C=CC=C(c3ccc(Oc4ccc(F)cc4)cc3)C2=N1 [Example 199, 9-[4-(4-fluorophenoxy)phenyl]-3,4-dihydropyrido[2,1-c][1,2,4]thiadiazine 2,2-dioxide] |
|  | 272 to 274 °C | 80% | O=S1(=O)CCN2C=CC=C(c3ccc(OC4CCCCC4)cc3)C2=N1 [Example 182, 9-[4-(cyclohexyloxy)phenyl]-3,4-dihydropyrido[2,1-c][1,2,4]thiadiazine 2,2-dioxide] |
|  | 171 to 172 °C |  | CC(F)(F)c1ccc(Oc2ccc(C3CCCN4CCS(=O)(=O)N=C34)cc2)cc1 (centres unmarked) [Example 170, 9-{4-[4-(1,1-difluoroethyl)phenoxy]phenyl}-3,4,6,7,8,9-hexahydropyrido[2,1-c][1,2,4]thiadiazine 2,2-dioxide] |
| 68% | 258 to 259 °C |  | CC(C)(C)COc1ccc(C2=CC=CN3CCS(=O)(=O)N=C23)cc1 [Example 67, 9-[4-(2,2-dimethylpropoxy)phenyl]-3,4-dihydropyrido[2,1-c][1,2,4]thiadiazine 2,2-dioxide] |
|  | 269 to 270 °C | 70% | COC1=C(c2ccc(Oc3ccccc3)cc2)C2=NS(=O)(=O)CCN2C=C1 [Example 204, 8-methoxy-9-(4-phenoxyphenyl)-3,4-dihydropyrido[2,1-c][1,2,4]thiadiazine 2,2-dioxide] |
| 78% | 224 to 227 °C |  | O=S1(=O)CCN2CCCC(c3ccc(-c4ccccc4)cc3)C2=N1 (centres unmarked) [Example 65, 9-biphenyl-4-yl-3,4,6,7,8,9-hexahydropyrido[2,1-c][1,2,4]thiadiazine 2,2-dioxide] |
|  | 207 to 208 °C |  | O=S1(=O)CCN2CCCC(c3ccc(OC(F)(F)F)cc3)C2=N1 (centres unmarked) [Example 41, 9-[4-(trifluoromethoxy)phenyl]-3,4,6,7,8,9-hexahydropyrido[2,1-c][1,2,4]thiadiazine 2,2-dioxide] |
| 73% | 220 to 222 °C |  | O=S1(=O)CCN2CCCC(c3ccc(-c4ccccc4)cc3)C2=N1 (centres unmarked) [Example 64, 9-biphenyl-4-yl-3,4,6,7,8,9-hexahydropyrido[2,1-c][1,2,4]thiadiazine 2,2-dioxide] |
| 81% | 222 to 223 °C |  | O=S1(=O)CCN2C=CC=C(c3ccc(OCC4CCCO4)cc3)C2=N1 (centres unmarked) [Example 75, 9-[4-(tetrahydrofuran-2-ylmethoxy)phenyl]-3,4-dihydropyrido[2,1-c][1,2,4]thiadiazine 2,2-dioxide] |
|  | 251 to 252 °C |  | O=S1(=O)CCN2C=CC=C(c3ccc(Oc4ccccc4)cc3)C2=N1 [Example 166, 9-(4-phenoxyphenyl)-3,4-dihydropyrido[2,1-c][1,2,4]thiadiazine 2,2-dioxide] |
|  | 124 to 125 °C |  | O=S1(=O)CCN2CCN[C@H](c3ccc(Oc4ccccc4)cc3)C2=N1 [Example 213, (9R)-9-(4-phenoxyphenyl)-3,4,6,7,8,9-hexahydropyrazino[2,1-c][1,2,4]thiadiazine 2,2-dioxide] |
| 69% | 248 to 249 °C |  | Cc1ccc(Oc2ccc(C3=CC=CN4CCS(=O)(=O)N=C34)cc2)cc1 [Example 107, 9-[4-(4-methylphenoxy)phenyl]-3,4-dihydropyrido[2,1-c][1,2,4]thiadiazine 2,2-dioxide] |
|  | 244 to 245 °C | 74% | O=S1(=O)CCN2C=CC=C(c3ccc(Oc4ccccc4)nc3)C2=N1 [Example 191, 9-(6-phenoxypyridin-3-yl)-3,4-dihydropyrido[2,1-c][1,2,4]thiadiazine 2,2-dioxide] |
|  | 248 to 250 °C |  | Cc1ccc(Oc2ccc(C3=CC=CN4CCS(=O)(=O)N=C34)cc2)cc1 [Example 168, 9-[4-(4-methylphenoxy)phenyl]-3,4-dihydropyrido[2,1-c][1,2,4]thiadiazine 2,2-dioxide] |

| activity (%) [1, 2] | melting point | activity (%) [1, 3] | Compound |
| --- | --- | --- | --- |
|  | 183 to 185 °C |  | O=S1(=O)CCN2CCCC(c3ccc(Oc4ccc(Cl)cc4)cc3)C2=N1 (centres unmarked) [Example 150, 9-[4-(4-chlorophenoxy)phenyl]-3,4,6,7,8,9-hexahydropyrido[2,1-c][1,2,4]thiadiazine 2,2-dioxide] |
|  | 258 to 259 °C |  | O=S1(=O)CCN2C=CC=C(c3ccc(OCC4CCCC4)cc3)C2=N1 [Example 74, 9-[4-(cyclopentylmethoxy)phenyl]-3,4-dihydropyrido[2,1-c][1,2,4]thiadiazine 2,2-dioxide] |
|  | 232 to 236 °C |  | CC(C)(C)c1ccc(C2CCCN3CCS(=O)(=O)N=C23)cc1 (centres unmarked) [Example 38, 9-(4-tert-butylphenyl)-3,4,6,7,8,9-hexahydropyrido[2,1-c][1,2,4]thiadiazine 2,2-dioxide] |
|  | 237 to 239 °C |  | CCC(C)c1ccc(C2=CC=CN3CCS(=O)(=O)N=C23)cc1 (centres unmarked) [Example 32, 9-[4-(1-methylpropyl)phenyl]-3,4-dihydropyrido[2,1-c][1,2,4]thiadiazine 2,2-dioxide] |
|  | 154 to 156 °C |  | O=S1(=O)CCN2CCC[C@@H](c3ccc(Oc4ccc(F)c(Cl)c4)cc3)C2=N1 [Example 457, (9S)-9-[4-(3-chloro-4-fluorophenoxy)phenyl]-3,4,6,7,8,9-hexahydropyrido[2,1-c][1,2,4]thiadiazine 2,2-dioxide] |
|  | 253 to 255 °C |  | O=S1(=O)CCN2C=CC=C(c3ccc(Oc4ccc(C(F)(F)F)cc4)cc3)C2=N1 [Example 200, 9-{4-[4-(trifluoromethyl)phenoxy]phenyl}-3,4-dihydropyrido[2,1-c][1,2,4]thiadiazine 2,2-dioxide] |
|  | 245 to 247 °C |  | CC(C)Oc1ccc(C2=CC=CN3CCS(=O)(=O)N=C23)cc1 [Example 33, 9-[4-(1-methylethoxy)phenyl]-3,4-dihydropyrido[2,1-c][1,2,4]thiadiazine 2,2-dioxide] |
|  | 124 to 125 °C |  | O=S1(=O)CCN2CCN[C@@H](c3ccc(Oc4ccccc4)cc3)C2=N1 [Example 212, (9S)-(4-phenoxyphenyl)-3,4,6,7,8,9-hexahydropyrazino[2,1-c][1,2,4]thiadiazine 2,2-dioxide] |
|  | 291 to 292 °C |  | CC(C)(C)c1ccc(C2=CC=CN3CCS(=O)(=O)N=C23)cc1 [Example 35, 9-(4-tert-butylphenyl)-3,4-dihydropyrido[2,1-c][1,2,4]thiadiazine 2,2-dioxide] |
|  | 169 to 170 °C |  | CCCOc1ccc(C2CCCN3CCS(=O)(=O)N=C23)cc1 (centres unmarked) [Example 190, 9-(4-propoxyphenyl)-3,4,6,7,8,9-hexahydropyrido[2,1-c][1,2,4]thiadiazine 2,2-dioxide] |
|  | 171 to 176 °C |  | O=S1(=O)CCN2CCC[C@H](c3ccc(Oc4ccccc4)cc3)C2=N1 [Example 62, (9R)-9-(4-phenoxyphenyl)-3,4,6,7,8,9-hexahydropyrido[2,1-c][1,2,4]thiadiazine 2,2-dioxide] |
|  | 152 to 153 °C |  | CCc1ccc(Oc2ccc([C@H]3CCCN4CCS(=O)(=O)N=C34)cc2)cc1 [Example 217, (9R)-9-[4-(4-ethylphenoxy)phenyl]-3,4,6,7,8,9-hexahydropyrido[2,1-c][1,2,4]thiadiazine 2,2-dioxide] |
|  | 191 to 192 °C |  | CC(C)Oc1ccc(C2CCCN3CCS(=O)(=O)N=C23)cc1 (centres unmarked) [Example 40, 9-[4-(1-methylethoxy)phenyl]-3,4,6,7,8,9-hexahydropyrido[2,1-c][1,2,4]thiadiazine 2,2-dioxide] |
|  | 238 to 239 °C |  | O=S1(=O)CCN2C=C(Cl)C=C(c3ccc(Oc4cc(C(F)(F)F)ccn4)cc3)C2=N1 [Example 76, 7-chloro-9-(4-{[4-(trifluoromethyl)pyridin-2-yl]oxy}phenyl)-3,4-dihydropyrido[2,1-c][1,2,4]thiadiazine 2,2-dioxide] |
|  | 198 to 203 °C |  | CC(C)c1ccc(C2CCCN3CCS(=O)(=O)N=C23)cc1 (centres unmarked) [Example 42, 9-[4-(1-methylethyl)phenyl]-3,4,6,7,8,9-hexahydropyrido[2,1-c][1,2,4]thiadiazine 2,2-dioxide] |
|  | 254 to 256 °C |  | O=S1(=O)CCN2C=CC=C(c3ccc(OC4CCCC4)cc3)C2=N1 [Example 66, 9-[4-(cyclopentyloxy)phenyl]-3,4-dihydropyrido[2,1-c][1,2,4]thiadiazine 2,2-dioxide] |
|  | 275 to 277 °C |  | O=S1(=O)CCN2C=CC=C(c3ccc(OC4CCCCC4)cc3)C2=N1 [Example 165, 9-[4-(cyclohexyloxy)phenyl]-3,4-dihydropyrido[2,1-c][1,2,4]thiadiazine 2,2-dioxide] |

| Compound | activity (%) [1, 2] | melting point | activity (%) [1, 3] |
| --- | --- | --- | --- |
| CCCCOc1ccc(C2=CC=CN3CCS(=O)(=O)N=C23)cc1 [Example 209, 9-(4-butoxyphenyl)-3,4-dihydropyrido[2,1-c][1,2,4]thiadiazine 2,2-dioxide] |  | 230 to 232 °C |  |
